Test: molar heat capacity at constant pressure
Conditions: 101.33 kPa

CCC(C)CO (stereo not given) [2-methyl-1-butanol]
Conditions	molar heat capacity at constant pressure [J/K/mol]
84.68 K, Glass	66.37
85.32 K, Glass	66.9
86.62 K, Glass	68.05
88.13 K, Glass	68.63
88.55 K, Glass	69.49
89.15 K, Glass	69.5
90.45 K, Glass	69.12
90.85 K, Glass	70.72
92.36 K, Glass	71.63
92.5 K, Glass	69.54
92.77 K, Glass	72.07
93.04 K, Glass	72.48
94.27 K, Glass	72.89
94.29 K, Glass	72.88
94.69 K, Glass	73.39
96.19 K, Glass	74.2
96.22 K, Glass	74.42
96.61 K, Glass	74.74
98.11 K, Glass	75.66
98.15 K, Glass	75.92
98.53 K, Glass	76.35
100.03 K, Glass	77.35
100.07 K, Glass	77.68
100.45 K, Glass	77.93
101.96 K, Glass	78.33
101.99 K, Glass	78.7
102.38 K, Glass	78.97
103.89 K, Glass	79.44
103.92 K, Glass	79.95
104.32 K, Glass	80.34
105.82 K, Glass	80.96
105.85 K, Glass	81.54
106.25 K, Glass	82
107.75 K, Glass	82.7
107.79 K, Glass	83.22
108.19 K, Glass	83.82
109.68 K, Glass	84.31
109.72 K, Glass	84.61
110.13 K, Glass	85.55
111.62 K, Glass	86.17
111.66 K, Glass	86.13
112.07 K, Glass	87.55
113.54 K, Glass	88.63
113.6 K, Glass	88.13
114.02 K, Glass	89.94
115.46 K, Glass	92.53
115.54 K, Glass	91.47
115.95 K, Glass	93.24
117.36 K, Glass	100.69
117.46 K, Glass	98.77
117.87 K, Glass	98.66
124.07 K, Liquid	145.49
124.32 K, Liquid	145.64
124.62 K, Liquid	145.89
125.99 K, Liquid	145.72
126.25 K, Liquid	145.78
126.56 K, Liquid	145.84
127.96 K, Liquid	145.9
128.21 K, Liquid	145.94
128.53 K, Liquid	145.95
129.93 K, Liquid	146.02
130.19 K, Liquid	146.06
130.5 K, Liquid	146.03
131.9 K, Liquid	146.08
132.16 K, Liquid	146.14
132.47 K, Liquid	146.14
133.88 K, Liquid	146.23
134.14 K, Liquid	146.25
134.45 K, Liquid	146.21
135.85 K, Liquid	146.27
136.11 K, Liquid	146.35
136.42 K, Liquid	146.35
137.83 K, Liquid	146.45
138.09 K, Liquid	146.51
138.4 K, Liquid	146.51
139.8 K, Liquid	146.64
140.06 K, Liquid	146.68
140.37 K, Liquid	146.62
141.77 K, Liquid	146.82
142.04 K, Liquid	146.87
142.35 K, Liquid	146.83
143.75 K, Liquid	146.95
144.02 K, Liquid	146.99
144.32 K, Liquid	146.98
145.73 K, Liquid	147.13
145.99 K, Liquid	147.22
146.3 K, Liquid	147.23
147.7 K, Liquid	147.38
147.97 K, Liquid	147.38
148.27 K, Liquid	147.42
149.68 K, Liquid	147.55
149.94 K, Liquid	147.65
150.25 K, Liquid	147.61
151.45 K, Liquid	147.59
151.8 K, Liquid	147.34
151.92 K, Liquid	147.82
152.97 K, Liquid	147.67
153.9 K, Liquid	148.01
154.95 K, Liquid	148.09
155.88 K, Liquid	148.33
156.92 K, Liquid	148.38
157.86 K, Liquid	148.55
158.9 K, Liquid	148.61
159.84 K, Liquid	148.75
160.88 K, Liquid	148.86
161.82 K, Liquid	149.02
162.85 K, Liquid	149.11
163.8 K, Liquid	149.23
164.83 K, Liquid	149.31
165.78 K, Liquid	149.53
166.81 K, Liquid	149.67
167.76 K, Liquid	149.85
168.79 K, Liquid	149.95
169.74 K, Liquid	150.13
170.77 K, Liquid	150.21
171.72 K, Liquid	150.38
172.75 K, Liquid	150.45
173.69 K, Liquid	150.67
174.73 K, Liquid	150.8
175.67 K, Liquid	150.96
176.7 K, Liquid	151.12
177.65 K, Liquid	151.36
178.68 K, Liquid	151.42
179.63 K, Liquid	151.66
180.65 K, Liquid	151.78
181.61 K, Liquid	151.91
182.63 K, Liquid	152.05
183.59 K, Liquid	152.19
184.61 K, Liquid	152.36
185.56 K, Liquid	152.59
186.59 K, Liquid	152.73
187.54 K, Liquid	152.92
188.56 K, Liquid	153.02
189.52 K, Liquid	153.24
190.54 K, Liquid	153.38
191.5 K, Liquid	153.55
192.51 K, Liquid	153.71
193.48 K, Liquid	153.87
194.49 K, Liquid	154.12
195.45 K, Liquid	154.28
196.47 K, Liquid	154.44
197.43 K, Liquid	154.67
198.44 K, Liquid	154.78
199.4 K, Liquid	155
200.41 K, Liquid	155.18
201.38 K, Liquid	155.44
202.39 K, Liquid	155.73
203.35 K, Liquid	155.9
204.36 K, Liquid	156.25
205.33 K, Liquid	156.37
206.33 K, Liquid	156.66
207.3 K, Liquid	156.95
208.31 K, Liquid	157.5
209.28 K, Liquid	157.69
210.28 K, Liquid	158.2
211.25 K, Liquid	158.49
212.25 K, Liquid	158.88
213.22 K, Liquid	159.25
214.23 K, Liquid	159.75
215.2 K, Liquid	160.09
216.21 K, Liquid	160.71
217.17 K, Liquid	160.99
218.18 K, Liquid	161.49
219.15 K, Liquid	161.82
220.15 K, Liquid	162.39
221.13 K, Liquid	162.7
222.13 K, Liquid	163.26
223.11 K, Liquid	163.61
224.1 K, Liquid	164.01
225.09 K, Liquid	164.48
226.08 K, Liquid	164.73
227.07 K, Liquid	165.18
228.06 K, Liquid	165.39
229.05 K, Liquid	165.83
230.04 K, Liquid	166.09
231.03 K, Liquid	166.52
232.02 K, Liquid	166.86
233.01 K, Liquid	167.29
233.99 K, Liquid	167.66
234.99 K, Liquid	168.13
235.97 K, Liquid	168.53
236.96 K, Liquid	169
237.94 K, Liquid	169.41
238.94 K, Liquid	169.88
239.92 K, Liquid	170.34
240.92 K, Liquid	170.8
241.89 K, Liquid	171.24
242.89 K, Liquid	171.69
243.86 K, Liquid	172.18
244.85 K, Liquid	172.64
245.82 K, Liquid	173.22
246.81 K, Liquid	173.63
247.77 K, Liquid	174.23
248.76 K, Liquid	174.73
249.72 K, Liquid	175.28
250.7 K, Liquid	175.88
251.66 K, Liquid	176.43
252.64 K, Liquid	177.14
253.59 K, Liquid	177.16
254.57 K, Liquid	177.34
255.52 K, Liquid	177.97
256.5 K, Liquid	178.62
257.44 K, Liquid	179.24
258.43 K, Liquid	179.85
259.36 K, Liquid	180.45
260.34 K, Liquid	181.06
261.27 K, Liquid	181.7
262.25 K, Liquid	182.25
263.18 K, Liquid	182.89
264.15 K, Liquid	183.6
265.08 K, Liquid	184.25
266.04 K, Liquid	184.88
266.97 K, Liquid	185.71
267.93 K, Liquid	186.53
268.85 K, Liquid	187.04
269.81 K, Liquid	187.76
270.72 K, Liquid	188.25
271.68 K, Liquid	189.05
272.59 K, Liquid	189.75
273.55 K, Liquid	190.39
274.46 K, Liquid	191.2
275.41 K, Liquid	191.82
276.31 K, Liquid	192.56
277.26 K, Liquid	193.3
278.16 K, Liquid	193.91
279.11 K, Liquid	194.8
280 K, Liquid	195.48
280.94 K, Liquid	196.42
281.83 K, Liquid	197.02
282.77 K, Liquid	197.86
283.66 K, Liquid	198.58
284.6 K, Liquid	199.41
285.47 K, Liquid	200.28
286.41 K, Liquid	201.04
287.29 K, Liquid	201.86
288.22 K, Liquid	202.76
289.09 K, Liquid	203.46
290.02 K, Liquid	204.47
290.89 K, Liquid	205.13
291.81 K, Liquid	206.07
292.67 K, Liquid	206.55
293.6 K, Liquid	207.65
294.46 K, Liquid	208.23
295.38 K, Liquid	209.45
296.23 K, Liquid	210.26
297.15 K, Liquid	211.14
298 K, Liquid	211.98
298.92 K, Liquid	212.94
299.76 K, Liquid	213.73
300.68 K, Liquid	214.69
